Consider two compounds from patent publication US7713952B2, “2-methylene-19,26,27-trinor-(20S)-1α-hydroxyvitamin D3 and its uses” (Wisconsin Alumni Research Foundation, priority 2004, dated 2010).

Experiment [1] has as its system vitamin D-deficient rats. Briefly: Bone calcium mobilization (serum calcium). Format: in vivo, rat. The note with it: rats on 0.02% Ca diet. Here is the method: (§1) Intestinal Calcium Transport and Bone Calcium Mobilization
(§2) Male, weanling Sprague-Dawley rats were placed on Diet 11 (0.47% Ca) diet +AEK for one week followed by Diet 11 (0.02% Ca) +AEK for 3 weeks. The rats were then switched to a diet containing 0.47% Ca for one week followed by two weeks on a diet containing 0.02% Ca. Dose administration began during the last week on 0.02% calcium diet. Four consecutive ip doses were given approximately 24 hours apart. Twenty-four hours after the last dose, blood was collected from the severed neck and the concentration of serum calcium determined as a measure of bone calcium mobilization. The first 10 cm of the intestine was also collected for intestinal calcium transport analysis using the everted gut sac method.

Experiment [2] relates to Human promyelocytic leukemia (HL60) cells. Briefly: HL-60 cell differentiation (nitro blue tetrazolium reduction). The experiment is classed as cell-based. Particulars: 4 days, FIG. 2. Here is the method: Radiolabeled and unlabeled ligands were added to 100 mcl of the diluted protein at a final ethanol concentration of ≦10%, mixed and incubated overnight on ice to reach binding equilibrium. The following day, 100 mcl of hydroxylapatite slurry (50%) was added to each tube and mixed at 10-minute intervals for 30 minutes. The hydroxylapaptite was collected by centrifugation and then washed three times with Tris-EDTA buffer (50 mM Tris, 1.5 mM EDTA, pH 7.4) containing 0.5% Titron X-100. After the final wash, the pellets were transferred to scintillation vials containing 4 ml of Biosafe II scintillation cocktail, mixed and placed in a scintillation counter. Total binding was determined from the tubes containing only radiolabeled ligand. • HL-60 Differentiation • Test Material Study Drugs
The study drugs were dissolved in ethanol and the concentrations determined using UV spectrophotometry. Serial dilutions were prepared so that a range of drug concentrations could be tested without changing the final concentration of ethanol (≦0.2%) present in the cell cultures. […]
HL60 cells were plated at 1.2×10^5 cells/ml. […] The percentage of differentiated cells was determined by counting a total of 200 cells and recording the number that contained intracellular black-blue formazan deposits. Verification of differentiation to monocytic cells was determined by measuring phagocytic activity (data not shown).

For experiment [3], the system named is vitamin D-deficient rats. Briefly: Intestinal calcium transport (everted gut sac method). The experiment is classed as in vivo, rat. The note with it: FIG. 6. The method, then:
as §1, §2

The test system of experiment [4] is 24-hydroxylase (24Ohase) gene promoter in ROS 17/2.8 (bone) cells. Briefly: In vitro transcription assay (24-hydroxylase promoter luciferase reporter). The note with it: ROS 17/2.8 cells, 24OHase-luciferase, 16 h; FIG. 3; read-out: EC50, transcriptional activity in bone cells. The experiment is classed as cell-based. Here is the method:
In Vitro Transcription Assay
Transcription activity was measured in ROS 17/2.8 (bone) cells that were stably transfected with a 24-hydroxylase (24Ohase) gene promoter upstream of a luciferase reporter gene (Arbour et al., 1998). Cells were given a range of doses. Sixteen hours after dosing the cells were harvested and luciferase activities were measured using a luminometer.
RLU=relative luciferase units.

Experiment [5] concerns the target T1, full-length recombinant rat vitamin D receptor (Rattus norvegicus, UniProt P13053).
T1 construct: Full-length recombinant rat receptor was expressed in E. coli; histidine tag (C); made in house; host or cells: E. coli BL21 (DE3) Codon Plus RIL
T1 sequence (P13053 1-423): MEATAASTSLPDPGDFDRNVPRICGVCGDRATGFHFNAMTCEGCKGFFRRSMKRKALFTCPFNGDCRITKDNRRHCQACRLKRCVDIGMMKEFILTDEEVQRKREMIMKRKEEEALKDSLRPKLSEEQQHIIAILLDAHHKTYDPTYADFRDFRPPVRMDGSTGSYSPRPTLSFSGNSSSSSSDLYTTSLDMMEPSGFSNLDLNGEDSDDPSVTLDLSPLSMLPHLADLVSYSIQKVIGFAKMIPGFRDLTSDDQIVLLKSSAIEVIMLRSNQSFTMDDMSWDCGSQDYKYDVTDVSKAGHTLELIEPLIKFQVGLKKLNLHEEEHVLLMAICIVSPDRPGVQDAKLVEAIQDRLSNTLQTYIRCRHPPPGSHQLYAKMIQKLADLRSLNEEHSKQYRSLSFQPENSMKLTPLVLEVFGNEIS
Briefly: Vitamin D receptor competitive binding with [3H]-1,25(OH)2D3. Particulars: full-length recombinant rat VDR; FIG. 1; read-out: Ki, competition with [3H]-1,25(OH)2D3 for binding to vitamin D receptor. Here is the method: Full-length recombinant rat receptor was expressed in E. coli BL21 (DE3) Codon Plus RIL cells and purified to homogeneity using two different column chromatography systems. The first system was a nickel affinity resin that utilizes the C-terminal histidine tag on this protein. The protein that was eluted from this resin was further purified using ion exchange chromatography (S-Sepharose Fast Flow). Aliquots of the purified protein were quick frozen in liquid nitrogen and stored at −80° C. until use. For use in binding assays, the protein was diluted in TEDK50 (50 mM Tris, 1.5 mM EDTA, pH7.4, 5 mM DTT, 150 mM KCl) with 0.1% Chaps detergent. The receptor protein and ligand concentration were optimized such that no more than 20% of the added radiolabeled ligand was bound to the receptor.
Radiolabeled and unlabeled ligands were added to 100 mcl of the diluted protein at a final ethanol concentration of ≦10%, mixed and incubated overnight on ice to reach binding equilibrium. The following day, 100 mcl of hydroxylapatite slurry (50%) was added to each tube and mixed at 10-minute intervals for 30 minutes. The hydroxylapaptite was collected by centrifugation and then washed three times with Tris-EDTA buffer (50 mM Tris, 1.5 mM EDTA, pH 7.4) containing 0.5% Titron X-100. […]

[6] abbreviates: 87 or 780 pmol/day ip for 4 days.

Regarding `C=C1[C@H](O)CC(=C/C=C2\CCC[C@@]3(C)C2CCC3[C@@H](C)CCCC)C[C@H]1O` (stereo partly drawn) [OM, 2-methylene-19,26,27-trinor-(20S)-1α-hydroxyvitamin D3], the “mobilization of bone calcium (serum calcium)” value is on record as “did not result in mobilization of bone calcium” with vitamin D-deficient rats [1] (87 pmol/day ip for 4 consecutive days); “without any substantial effect” in the experiment with vitamin D-deficient rats [1] (780 pmol/day and 7020 pmol/day ip for 4 days). Also, the EC50 was 4.7 nM in experiment [2] (Homo sapiens, HL-60, 96 h) and 3.2 nM in experiment [4]. Further, the intestinal calcium transport result with vitamin D-deficient rats [3] (7020 pmol/day ip for 4 days) was “significant intestinal calcium transport activity was recorded”; with vitamin D-deficient rats [3] (setting [6]), “does not promote intestinal calcium transport”. Moreover, the inhibition constant (Ki) in experiment [5] is 0.077 nM.

Take `C=C1/C(=C\C=C2/CCC[C@]3(C)[C@@H]([C@H](C)CCCC(C)(C)O)CC[C@@H]23)C[C@@H](O)C[C@@H]1O` [1,25(OH)2D3, 1α,25-dihydroxyvitamin D3, reference compound]: in the experiment on vitamin D-deficient rats [1] (all dosages, FIG. 4), the “serum calcium levels (bone calcium mobilization)” value is “increased serum calcium levels at all dosages”. This compound also yielded an EC50 in experiment [2] of 2.9 nM. Further, the intestinal calcium transport entry in the experiment on vitamin D-deficient rats [3] (setting [6]) was “promotes a significant increase”.
